From patent publication US20250195522A1, “TRANSDERMAL DOSAGE FORM, FOR PROMOTING LOCAL BLOOD FLOW, OF DUAL-ACTING PDE5 INHIBITOR/ORGANIC NITRATE ESTER” (UIF (University Industry Foundation), Yonsei University, priority 2022, published 2025)
“Also recorded” adds a separate entry of the source.

Experiments:
β-catenin = experiment: Immunohistochemical staining of mouse back skin, β-catenin; assay type: in vivo, mice; details: Day 21
Description: (§1) The development of skin tissue, which becomes the surrounding support for hair growth, plays an important role in hair growth. As such, in order to compare the degree of the development of skin tissue in 6 experimental groups of the vehicle-applied control group (topical control), the Minoxidil-applied positive control group (topical minoxidil), the Cp 1 application group (topical Cp 1), the candlelit-shaped microneedle control group (CMN control), the Cp 1 microneedle administration group (Cp 1 conv-DMN) and the Cp 1 candlelit-shaped microneedle administration group (Cp 1 CMN), β-catenin and PCNA, which are biomarkers indicating skin tissue proliferation, the vascular endothelial cell marker MECA 32 showing the development of the vascular network around the mouse hair follicle, and the dermal papilla cell (DP) marker Versican (VCAN), which is generated in the hair follicle anagen phase showing the hair follicle anagen phase inducing effect, were observed by immunohistochemical staining. To this end, as in Example 1-2, the back tissue of the mice was collected on Day 21, then the frozen tissue was sectioned, and the fluorescent material-conjugated antibody was treated on the tissue, and then the fluorescence images were analyzed. The antibodies used were β-catenin (BD Biosciences, San Jose, CA, USA), PCNA (LSBIO, Seattle, WA, USA), VCAN (LSBIO, Seattle, WA, USA) and MECA-32 (Novus Biologicals, CA, USA), respectively.

MECA 32 = experiment: Immunohistochemical staining of mouse back skin, vascular endothelial cell marker MECA 32; assay type: in vivo, mice; details: Day 21
Description: as §1

Versican (VCAN) = experiment: Immunohistochemical staining of mouse back skin, dermal papilla cell marker Versican (VCAN); assay type: in vivo, mice; details: Day 21
Description: as §1

[1] = tested on: C57BL/6 mice with hair follicles in the telogen phase; experiment: Hair growth in hair-removed C57BL/6 mice, evaluated on Day 21 (visual/Image J, H&E); assay type: in vivo; details: for skin area converted to black (anagen phase) with respect to the total hair-removed skin area / skin area with actual hair growth as a percentage of the total hair removal skin area: 50 μL
Description: 7-week-old C57BL/6 mice (Orient Bio, Korea) with hair follicles in the telogen phase were purchased and the experiment was performed. The experiment was conducted using 4 mice each for 6 experimental groups of a vehicle-applied control group (topical control), a Minoxidil-applied positive control group (topical Minoxidil), an Cp 1-applied group (topical Cp 1), a candlelit-shaped microneedle control group (CMN control), an Cp 1 microneedle administration group (Cp 1 conv-DMN) and an Cp 1 candlelit-shaped microneedle administration group (Cp 1 CMN).
In the topical formulation, polyethylene glycol 400 (PEG 400; Sigma-Aldrich, St. Louis, MO, USA) and ethanol (99.5°; Sigma-Aldrich) were mixed in 50 μL solution with a ratio of 7:3 (v/v) containing 2% (w/v) of minoxidil (Sigma-Aldrich) and 0.002% (w/v) of Cp-1 (2 μg per day). The topical formulation groups' 50 μL solutions were administered twice a day.
The experiment was started in a pink skin condition by removing the hair on the back of the mice, and the drug application was carried out twice a day for 21 days, and when injected using a microneedle, it was injected once every 2 days and was not injected on last Day 21.
On Day 21 of the administration, the area in which the color of the back of the mice was changed to black, that is, the area converted to the anagen phase among the shaved areas was analyzed with the naked eye and the Image J software (National Institutes of Health, Bethesda, MD, USA), which is an image analysis program.
On Day 21 of the administration, the ratio of actual hair growth on the back of the mice was analyzed with the naked eye and the Image J software (National Institutes of Health, Bethesda, MD, USA), which is an image analysis program.
On Day 21 of the administration, the distribution rate by hair growth cycle in mice was compared.

[2] = general microneedle or candlelit-shaped microneedle
[3] = topical application twice a day
[4] = topical application twice a day, 2% (w/v) minoxidil or 0.002% (w/v) Cp 1

How did the β-catenin expression (β-catenin; Cp 1 applied, compared with Minoxidil applied) turn out when `CCCOc1ccc(S(=O)(=O)N2CCC(CCO[N+](=O)[O-])(CCO[N+](=O)[O-])CC2)cc1-c1nc2c(CCC)cn(CC)c2c(=O)[nH]1` [Cp 1, (1-((3-(5-ethyl-4-oxo-7-propyl-4,5-dihydro-3H-pyrrolo[3,2-d]pyrimidin-2-yl)-4-propoxyphenyl)sulfonyl)piperidine-4,4-diyl)bis(ethane-2,1-diyl) dinitrate] was run?
The β-catenin expression was “higher”.

What about the β-catenin expression (β-catenin; administered using a candlelit-shaped microneedle) of the same compound?
The β-catenin expression was “highest β-catenin expression effect”.

And the β-catenin expression (β-catenin; administered with a microneedle, compared with Minoxidil applied)?
Its β-catenin expression is “higher”.

What about the “expression level of MECA 32 (rank order of groups)” value (MECA 32; [2]) of the same compound?
Its value is “increased in the order of Minoxidil application. Cp 1 application, Cp 1 administration using a general microneedle and M-19 administration using a candlelit-shaped microneedle”.

What about the “expression level of MECA 32 (rank order of groups)” value (MECA 32; topical application) of the same compound?
The value was “increased in the order of Minoxidil application. Cp 1 application, Cp 1 administration using a general microneedle and M-19 administration using a candlelit-shaped microneedle”.

And the “expression level of VCAN (rank order of groups)” value (Versican (VCAN); [2])?
The value was “increased in the order of Minoxidil application, Cp 1 application, Cp 1 administration using a general microneedle and M-19 administration using a candlelit-shaped microneedle”.

And the “expression level of VCAN (rank order of groups)” value (Versican (VCAN); topical application)?
The value was “increased in the order of Minoxidil application, Cp 1 application, Cp 1 administration using a general microneedle and M-19 administration using a candlelit-shaped microneedle”.

What about the “skin thickness and hair thickness” value ([1]; administered using microneedles, especially candlelit-shaped microneedles) of the same compound?
Its value is “more significantly improved skin thickening effect and hair thickness improvement effect”.

And the “hair growth effect and skin tissue development (visual observation, H&E)” value [1, 3]?
Its value is “increased skin thicknesses along with the hair growth effect; also recorded: more effective than Minoxidil treatment”.

And the “skin area converted to black (anagen phase) with respect to the total hair-removed skin area” value [1, 4]?
The value was 92.1±3.0%.

What about the “skin area with actual hair growth as a percentage of the total hair removal skin area” value [1, 4] of the same compound?
Its value is 61.0±14.0%.

And the “skin thickness and hair thickness” value ([1]; topical application, compared to topical Minoxidil)?
Its value is “more improved skin thickening effect and hair thickness improvement effect”.

What does the source list for `Nc1cc(N2CCCCC2)nc(N)[n+]1[O-]` [Minoxidil, 2,4-diamino-6-piperidinopyrimidine-3-oxide, reference compound]?
expression level of MECA 32 (rank order of groups) (MECA 32; topical application): increased in the order of Minoxidil application. Cp 1 application, Cp 1 administration using a general microneedle and M-19 administration using a candlelit-shaped microneedle; expression level of VCAN (rank order of groups) (Versican (VCAN); topical application): increased in the order of Minoxidil application, Cp 1 application, Cp 1 administration using a general microneedle and M-19 administration using a candlelit-shaped microneedle; hair growth effect and skin tissue development (visual observation, H&E) [1, 3]: increased skin thicknesses along with the hair growth effect; hair follicles converted to the anagen phase (distribution rate by hair growth cycle, H&E) [1, 4]: 52.5±1.3%; skin area converted to black (anagen phase) with respect to the total hair-removed skin area [1, 4]: 65.3±22.3%; skin area with actual hair growth as a percentage of the total hair removal skin area [1, 4]: 38.4±17.1%
